This is an account of results in ChEMBL document CHEMBL1153009, “Synthesis and evaluation of structurally constrained imidazolidin derivatives as potent dipeptidyl peptidase IV inhibitors” (Eur J Med Chem, 2009).

The target in one assay is Dipeptidyl peptidase 2 (Homo sapiens, UniProt Q9UHL4). The assay is described as follows: Inhibition of human recombinant DPP7 expressed in baculovirus-infected Sf9 cells by fluorescence plate reader method.
The target of the next assay is Dipeptidyl peptidase 9 (Homo sapiens, UniProt Q86TI2).
Chain of Dipeptidyl peptidase 9 (Q86TI2 whole entry): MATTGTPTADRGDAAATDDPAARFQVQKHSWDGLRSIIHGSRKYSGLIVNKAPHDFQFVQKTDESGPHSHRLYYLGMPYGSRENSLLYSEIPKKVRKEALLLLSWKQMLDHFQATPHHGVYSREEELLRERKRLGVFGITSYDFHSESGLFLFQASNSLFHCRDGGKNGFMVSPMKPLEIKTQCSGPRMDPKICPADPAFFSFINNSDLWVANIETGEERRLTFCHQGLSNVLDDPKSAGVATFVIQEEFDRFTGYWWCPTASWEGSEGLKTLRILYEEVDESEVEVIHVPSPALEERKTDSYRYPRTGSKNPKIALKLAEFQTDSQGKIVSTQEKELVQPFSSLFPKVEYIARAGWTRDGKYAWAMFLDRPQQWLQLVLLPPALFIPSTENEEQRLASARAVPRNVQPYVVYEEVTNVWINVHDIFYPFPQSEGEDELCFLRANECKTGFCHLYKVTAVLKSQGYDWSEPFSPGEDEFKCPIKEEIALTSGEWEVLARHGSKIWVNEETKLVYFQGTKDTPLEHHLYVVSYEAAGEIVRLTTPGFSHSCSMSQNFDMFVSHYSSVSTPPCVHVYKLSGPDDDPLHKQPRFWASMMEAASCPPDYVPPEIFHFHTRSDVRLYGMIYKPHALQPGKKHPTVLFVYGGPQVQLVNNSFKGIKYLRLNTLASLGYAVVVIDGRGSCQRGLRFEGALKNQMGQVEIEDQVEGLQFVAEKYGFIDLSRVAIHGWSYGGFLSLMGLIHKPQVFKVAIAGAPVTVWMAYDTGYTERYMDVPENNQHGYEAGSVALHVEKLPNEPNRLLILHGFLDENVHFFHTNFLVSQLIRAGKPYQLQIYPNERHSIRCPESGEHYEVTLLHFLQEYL

Each structure is given as a SMILES string.

The IC50 is the concentration that inhibits the measured activity by half. On to `COc1ccc(N2CCN(CCNCC(=O)N3CCCC3C#N)C2=O)cc1OC` (single isomer, unassigned), for which the IC50 on Dipeptidyl peptidase 2 and on Dipeptidyl peptidase 9 was more than 100 µM throughout.
